The text below walks through data of article PMC5564600 (Oncotarget, 2017).

Common to all, as to test: biochemical
Format in all cases: binding

For assay [1], the target named is T1, panel of 442 kinases (Homo sapiens, UniProt P49336).
T1 construct: purchased Ambit Biosciences (scanMAXX KINOMEscan)
As to conditions: CDK8; for remaining activity at 1 µM: read-out: % of control at 1 µM.

In assay [2] the target is T2, panel of 442 kinases (Homo sapiens, UniProt Q8WTQ7).
T2 construct: purchased Ambit Biosciences (scanMAXX KINOMEscan)
T2 sequence (Q8WTQ7 1-553): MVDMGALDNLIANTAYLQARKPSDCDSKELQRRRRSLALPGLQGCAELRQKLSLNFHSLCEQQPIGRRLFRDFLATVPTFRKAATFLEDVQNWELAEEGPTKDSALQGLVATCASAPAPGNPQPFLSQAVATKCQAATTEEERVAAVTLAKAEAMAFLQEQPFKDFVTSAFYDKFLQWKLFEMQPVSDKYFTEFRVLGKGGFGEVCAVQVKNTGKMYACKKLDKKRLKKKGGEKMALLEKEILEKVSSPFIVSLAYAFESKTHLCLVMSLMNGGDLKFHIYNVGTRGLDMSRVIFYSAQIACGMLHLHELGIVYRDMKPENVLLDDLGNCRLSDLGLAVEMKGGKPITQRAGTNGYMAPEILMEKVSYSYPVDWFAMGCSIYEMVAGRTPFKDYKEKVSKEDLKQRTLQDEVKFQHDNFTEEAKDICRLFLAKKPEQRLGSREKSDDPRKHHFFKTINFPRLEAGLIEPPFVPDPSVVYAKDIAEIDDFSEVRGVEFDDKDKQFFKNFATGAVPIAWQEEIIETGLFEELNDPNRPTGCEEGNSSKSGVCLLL
To be noted: kinase GRK7; for remaining activity at 1 µM: read-out: % of control at 1 µM.

The target in assay [3] is T3, panel of 442 kinases (Homo sapiens, UniProt Q9H093).
T3 construct: purchased Ambit Biosciences (scanMAXX KINOMEscan)
T3 sequence (Q9H093 1-628): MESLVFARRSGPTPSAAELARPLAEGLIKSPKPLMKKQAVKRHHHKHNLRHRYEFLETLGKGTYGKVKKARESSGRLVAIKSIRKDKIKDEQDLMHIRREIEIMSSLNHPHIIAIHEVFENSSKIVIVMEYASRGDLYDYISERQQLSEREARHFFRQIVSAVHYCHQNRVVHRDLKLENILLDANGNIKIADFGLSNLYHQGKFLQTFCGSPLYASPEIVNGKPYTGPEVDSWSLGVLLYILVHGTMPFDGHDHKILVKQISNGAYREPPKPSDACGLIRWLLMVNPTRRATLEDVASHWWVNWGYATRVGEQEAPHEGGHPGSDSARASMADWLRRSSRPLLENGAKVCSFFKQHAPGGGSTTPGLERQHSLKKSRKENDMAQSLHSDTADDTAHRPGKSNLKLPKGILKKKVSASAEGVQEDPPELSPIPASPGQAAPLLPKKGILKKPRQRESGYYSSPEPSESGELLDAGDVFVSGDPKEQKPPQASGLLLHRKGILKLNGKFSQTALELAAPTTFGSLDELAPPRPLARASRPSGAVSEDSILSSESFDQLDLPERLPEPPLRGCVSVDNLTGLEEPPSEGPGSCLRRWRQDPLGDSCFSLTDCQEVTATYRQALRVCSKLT
As to conditions: kinase SNARK; for remaining activity at 1 µM: read-out: SNARK (% of control at 1 µM).

The target in assay [4] is T4, panel of 442 kinases (Homo sapiens, UniProt Q16566).
T4 construct: purchased Ambit Biosciences (scanMAXX KINOMEscan)
T4 sequence (Q16566 1-473): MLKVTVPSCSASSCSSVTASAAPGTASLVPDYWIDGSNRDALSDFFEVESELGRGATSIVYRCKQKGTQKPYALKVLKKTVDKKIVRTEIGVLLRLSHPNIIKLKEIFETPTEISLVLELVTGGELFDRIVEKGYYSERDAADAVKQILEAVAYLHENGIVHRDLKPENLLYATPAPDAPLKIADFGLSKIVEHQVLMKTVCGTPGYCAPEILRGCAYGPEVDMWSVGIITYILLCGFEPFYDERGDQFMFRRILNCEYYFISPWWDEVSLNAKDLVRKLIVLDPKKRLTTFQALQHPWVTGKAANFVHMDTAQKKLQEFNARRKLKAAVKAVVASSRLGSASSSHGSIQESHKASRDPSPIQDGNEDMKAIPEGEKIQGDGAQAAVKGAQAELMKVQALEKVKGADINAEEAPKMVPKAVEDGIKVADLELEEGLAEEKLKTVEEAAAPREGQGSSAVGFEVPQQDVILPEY
To be noted: CAMK4; for remaining activity at 1 µM: read-out: % of control at 1 µM.

The target of assay [5] is T5, panel of 442 kinases (Homo sapiens, UniProt P68400).
T5 construct: purchased Ambit Biosciences (scanMAXX KINOMEscan)
To be noted: CSNK2A1; for remaining activity at 1 µM: read-out: % of control at 1 µM.

The target in assay [6] is T6, panel of 442 kinases (Homo sapiens, UniProt P54753).
T6 construct: purchased Ambit Biosciences (scanMAXX KINOMEscan)
T6 sequence (P54753 34-998): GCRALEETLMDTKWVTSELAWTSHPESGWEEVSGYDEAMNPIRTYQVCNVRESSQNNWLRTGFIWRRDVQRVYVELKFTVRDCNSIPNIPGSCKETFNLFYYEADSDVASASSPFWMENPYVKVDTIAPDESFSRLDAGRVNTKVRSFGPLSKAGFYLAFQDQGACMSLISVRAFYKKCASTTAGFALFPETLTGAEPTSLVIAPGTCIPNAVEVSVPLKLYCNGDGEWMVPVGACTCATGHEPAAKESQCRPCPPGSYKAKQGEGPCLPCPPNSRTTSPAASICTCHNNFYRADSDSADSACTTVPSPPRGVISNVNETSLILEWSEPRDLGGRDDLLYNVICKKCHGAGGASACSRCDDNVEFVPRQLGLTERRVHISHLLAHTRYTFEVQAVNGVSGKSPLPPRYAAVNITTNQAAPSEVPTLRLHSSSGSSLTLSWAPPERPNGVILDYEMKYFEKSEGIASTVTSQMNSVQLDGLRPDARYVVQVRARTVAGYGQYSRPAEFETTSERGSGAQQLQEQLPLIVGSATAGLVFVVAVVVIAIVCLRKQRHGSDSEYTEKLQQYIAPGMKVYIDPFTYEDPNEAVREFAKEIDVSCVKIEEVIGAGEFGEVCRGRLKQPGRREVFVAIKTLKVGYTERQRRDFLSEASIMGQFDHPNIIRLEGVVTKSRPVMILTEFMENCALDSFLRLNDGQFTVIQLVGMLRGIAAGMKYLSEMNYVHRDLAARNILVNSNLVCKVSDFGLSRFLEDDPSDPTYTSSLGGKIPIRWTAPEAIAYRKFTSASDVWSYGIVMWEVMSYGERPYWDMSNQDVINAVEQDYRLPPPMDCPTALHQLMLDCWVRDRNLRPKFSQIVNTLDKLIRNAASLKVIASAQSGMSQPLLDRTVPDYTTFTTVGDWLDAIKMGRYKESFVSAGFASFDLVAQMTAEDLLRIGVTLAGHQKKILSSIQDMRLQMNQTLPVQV
To be noted: EPHB3; for remaining activity at 1 µM: read-out: % of control at 1 µM.

[7] abbreviates: 10 µM, read-out: % of control at 10 µM.

T1 sequence (P49336 whole entry): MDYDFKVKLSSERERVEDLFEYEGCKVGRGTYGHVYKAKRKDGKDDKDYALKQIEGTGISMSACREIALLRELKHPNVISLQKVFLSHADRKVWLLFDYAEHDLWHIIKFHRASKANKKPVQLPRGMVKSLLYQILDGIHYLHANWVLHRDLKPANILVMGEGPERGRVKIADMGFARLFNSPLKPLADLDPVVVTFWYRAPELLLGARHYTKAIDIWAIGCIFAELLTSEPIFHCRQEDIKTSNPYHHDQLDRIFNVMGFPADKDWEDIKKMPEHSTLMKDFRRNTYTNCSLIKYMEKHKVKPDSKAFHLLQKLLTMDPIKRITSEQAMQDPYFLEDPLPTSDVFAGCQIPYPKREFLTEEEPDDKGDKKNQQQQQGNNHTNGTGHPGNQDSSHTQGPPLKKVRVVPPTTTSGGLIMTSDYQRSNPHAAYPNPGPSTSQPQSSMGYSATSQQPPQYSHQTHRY
T5 sequence (P68400 whole entry): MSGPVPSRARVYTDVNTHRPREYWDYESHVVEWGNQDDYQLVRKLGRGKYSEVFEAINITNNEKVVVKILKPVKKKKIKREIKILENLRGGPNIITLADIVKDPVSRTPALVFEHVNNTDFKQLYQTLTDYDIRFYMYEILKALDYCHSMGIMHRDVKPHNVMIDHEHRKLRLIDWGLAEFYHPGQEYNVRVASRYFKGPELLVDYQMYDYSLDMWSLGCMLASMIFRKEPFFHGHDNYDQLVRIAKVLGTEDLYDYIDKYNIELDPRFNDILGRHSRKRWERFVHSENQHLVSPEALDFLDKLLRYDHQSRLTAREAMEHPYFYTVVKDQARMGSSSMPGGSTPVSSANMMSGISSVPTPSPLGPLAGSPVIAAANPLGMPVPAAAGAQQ

Turning to `Nc1cc(C(F)(F)F)c(-c2cc(N3CCOCC3)nc(N3CCOCC3)n2)cn1` [Buparlisib], the remaining activity at 1 µM at panel of 442 kinases [1] is 100%; at panel of 442 kinases [2], 77%; on panel of 442 kinases [3], 100%; on panel of 442 kinases [4] it was 89%; on panel of 442 kinases [5], 91%; on panel of 442 kinases [6], 91%. The remaining activity at 10 µM on panel of 442 kinases [1] (setting [7]) turned out to be 100%; at panel of 442 kinases [2] (setting [7]) it was 100%; on panel of 442 kinases [3] (10 µM, read-out: SNARK (% of control at 10 µM)) it was 100%; on panel of 442 kinases [4] (setting [7]) it was 100%; on panel of 442 kinases [5] (setting [7]), 100%; on panel of 442 kinases [6] (setting [7]), 100%.

Regarding `Cn1c(=O)n(-c2ccc(C(C)(C)C#N)cc2)c2c3cc(-c4cnc5ccccc5c4)ccc3ncc21` [Dactolisib, 2-methyl-2-[4-(3-methyl-2-oxo-8-quinolin-3-yl-2,3-dihydroimidazo[4,5-c]quinolin-1-yl)-phenyl] propionitrile], the remaining activity at 1 µM on panel of 442 kinases [1] came out at 100%; at panel of 442 kinases [2], 92%; on panel of 442 kinases [3], 34%; at panel of 442 kinases [5], 64%; at panel of 442 kinases [6], 70%.

As for `FC(F)c1nc2ccccc2n1-c1nc(N2CCOCC2)nc(N2CCOCC2)n1` [ZSTK474, 2-(difluoromethyl)-1-[4,6-di(4-morpholinyl)-1,3,5-triazin-2-yl]-1H-benzimidazole], the remaining activity at 1 µM at panel of 442 kinases [1] stood at 80%; at panel of 442 kinases [2], 98%; at panel of 442 kinases [3], 100%; at panel of 442 kinases [4] it was 92%; at panel of 442 kinases [5], 90%; on panel of 442 kinases [6], 56%.

Consider `COc1ncc(-c2ccc3nccc(-c4ccnnc4)c3c2)cc1NS(=O)(=O)c1ccc(F)cc1F` [Omipalisib], for which the remaining activity at 1 µM on panel of 442 kinases [1] amounted to 70%; at panel of 442 kinases [2] it was 100%; on panel of 442 kinases [3] it was 100%; on panel of 442 kinases [4], 100%; on panel of 442 kinases [5] it was 100%; on panel of 442 kinases [6], 100%.
